Experimental data as given in EPA's ToxValDB 9.5 (doi:10.2903/j.efsa.2009.203r).
In brackets after ≈: the same amount, converted by molar mass.

How the values were obtained:
Anas platyrhynchos = conditions: short-term; oral; feed; mortality
Canidae = conditions: oral, Dog Other, histopathology: nonneoplastic
Colinus virginianus = conditions: acute, oral, mortality
Rattus norvegicus = conditions: for LD50: acute, mortality
Oncorhynchus mykiss = conditions: acute; duration: 96 hours; mortality

| SMILES | LC50 (Anas platyrhynchos) [mg/kg-day] | NOAEL (Canidae; chronic, duration: 1 years, capsule) [mg/kg-day] | LC50 (Colinus virginianus; diet) [mg/kg-day] | LD50 (Colinus virginianus) [mg/kg-day] | LD50 (Rattus norvegicus; oral) [mg/kg-day] | NOAEL (Rattus norvegicus; chronic, duration: 2 years, histopathology: nonneoplastic) [mg/kg-day] | NOAEL (Rattus norvegicus; developmental, oral, gavage, development) [mg/kg-day] | LC50 (Oncorhynchus mykiss) [µg/mL] | NOAEL (Canidae; subchronic, duration: 90 days, gavage) [mg/kg-day] | NOAEL (Rattus norvegicus; chronic, duration: 104 weeks, oral, drinking water, histopathology: nonneoplastic) [mg/kg-day] | NOAEL (Rattus norvegicus; reproduction developmental) [mg/kg-day] |
| --- | --- | --- | --- | --- | --- | --- | --- | --- | --- | --- | --- |
| CNC(=S)[S-].[Na+] [Metam-sodium] | > 324 | 0.1 | > 448 | 211 | 896 | 1.5 | 5 | – | – | – | – |
| CN=C=S [Methyl isothiocyanate] | – | – | – | – | 147 | – | – | 0.0531 (≈ 0.726 µM) | 0.4 | 0.44 | 3 |
